Tests used:
PD-1/PD-L1 = target: T1, PD-1/PD-L1 (Homo sapiens, UniProt Q9NZQ7); assay: PD-1/PD-L1 binding assay (HTRF, PPI-HTRF); details: HTRF PD1/PD-L1 binding assay kit; 10 nM Tag1-PD-L1; 25° C.
T1 construct: purchased Cisbio 63ADK000CPDPEB
Method in brief: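 HTRF binding assay: compound was mixed with tagged proteins at final concentrations of 10 nM Tag1-PD-L1 and 2 nM PD1 for 15 min at 25 °C. Anti-Tag1-Eu³⁺ and anti-Tag2-XL665 antibodies were then added for 16 h at 25 °C. IC50 was derived from the 665/620 nm emission ratio.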

[1] = system: Jurkat T(PD1 Luc-)/CHOK1(PDL-1); assay: Jurkat T(PD1 Luc-)/CHOK1(PDL-1) cell experiment (luciferase reporter); type: cell-based; details: CHO/PD-L1-OKT3 cells co-cultured with Jurkat/PD1-NFAT-Luc cells for 6 hours; Bio-Glo luciferase signal
Experimental: Assay 2 Jurkat T(PD1 Luc-)/CHOK1(PDL-1) Cell Experiment
G418, Sangon Biotech #A100859-0001, Cat Number G108BA0003, 5 ml of deionized water being added into each bottle, store at 4° C.
CHO/PD-L1-OKT3 cells (constructed by referring to Promega's PD-1/PD-L1 Blockade Bioassays system) cultured in F-12K medium (containing 10% FBS, 800 ug/ml G418, 400 ug/ml D Hygromycin B) were planted into a 96-well plate at 2×10^4 per well, and incubated for 24 hours at 37° C. and 5% CO2. part of the medium was removed, and the test compound dissolved in DMSO with a final concentration of 1 uM was added, and DMSO at the same concentration was added into the control cells. Jurkat/PD1-NFAT-Luc cells (constructed by referring to Promega's PD-1/PD-L1 Blockade Bioassays system) were added at 5×10^5 per well at the same time, and cultured for 6 hours. The corresponding luciferase signal was detected by Bio-Glo™ (Promega, G7940) reagent. The EC50 of each compound to be tested was calculated through the non-linear regression of XLfit software.

T1 sequence (Q9NZQ7 19-238 limits assumed): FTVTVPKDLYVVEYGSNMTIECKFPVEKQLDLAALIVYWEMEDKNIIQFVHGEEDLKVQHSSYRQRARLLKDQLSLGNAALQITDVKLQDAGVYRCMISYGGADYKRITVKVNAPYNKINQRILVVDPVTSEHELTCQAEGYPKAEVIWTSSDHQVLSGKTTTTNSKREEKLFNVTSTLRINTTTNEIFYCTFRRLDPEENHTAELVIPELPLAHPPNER

COc1cc(/C=C/c2cccc(-c3cccc(NC(=O)c4ccc(CNCCS(C)(=N)=O)cn4)c3C)c2C)c(C(F)(F)F)cc1CN1CC[C@@H](C(=O)O)C1 (stereo partly drawn) [Z-109, (3R)-1-(4-((E)-2-(2,2′-dimethyl-3′-(5-(((2-(S-methylsulfonimidoyl)ethyl)amino)methyl)picolinamido)-[1,1′-biphenyl]-3-yl)vinyl)-2-methoxy-5-(trifluoromethyl)benzyl)pyrrolidine-3-carboxylic Acid]
IC50 (PD-1/PD-L1): 1 nM
EC50 [1]: 121 nM

COc1cc(/C=C/c2cccc(-c3cccc(-c4nc5cc(CN6CC[C@@H](O)C6)cc(C#N)c5o4)c3C)c2C)c(C(F)(F)F)cc1CN1CCC[C@H]1C(=O)O [Z-36, (4-((E)-2-(3′-(7-cyano-5-(((R)-3-hydroxypyrrolidin-1-yl)methyl)benzo[d]oxazol-2-yl)-2,2′-dimethyl-[1,1′-biphenyl]-3-yl)vinyl)-2-methoxy-5-(trifluoromethyl)benzyl)-L-proline]
IC50 (PD-1/PD-L1): 2 nM
EC50 [1]: 50 nM

COc1cc(/C=C/c2cccc(-c3cccc(-c4nc5cc(CN6CC[C@@H](C(=O)O)C6)cc(C#N)c5o4)c3C)c2C)c(C(F)(F)F)cc1CN1CC[C@@H](O)C1 [Z-21, (R)-1-((7-cyano-2-(3′-((E)-4-(((R)-3-hydroxypyrrolidin-1-yl)methyl)-5-methoxy-2-(trifluoromethyl)styryl)-2,2′-dimethyl-[1,1′-biphenyl]-3-yl)benzo[d]oxazol-5-yl)methyl) pyrrolidine-3-carboxylic Acid]
IC50 (PD-1/PD-L1): 1 nM
EC50 [1]: 5 nM

COc1cc(C(=O)Nc2cccc(-c3cccc(/C=C/c4cc(OC)c(CN5CC[C@@H](O)C5)cc4C(F)(F)F)c3C)c2C)ncc1CN1CC[C@@H](O)C1 [Z-135]
IC50 (PD-1/PD-L1): ≤ 1 nM
EC50 [1]: 44 nM

Cc1cc(/C=C/c2nccc(-c3cccc(NC(=O)c4ccc(CN5CC[C@@H](O)C5)cn4)c3Cl)c2C)c(Cl)cc1CN1CC[C@@H](C(=O)O)C1 [Z-76]
IC50 (PD-1/PD-L1): 1 nM
EC50 [1]: 361 nM

COc1cc(C(=O)Nc2cccc(-c3cccc(/C=C/c4cc(OC)c(CN5CCC[C@H]5C(=O)O)cc4C(F)(F)F)c3C)c2C)ncc1CNCCO [Z-112]
IC50 (PD-1/PD-L1): 1 nM
EC50 [1]: 25 nM

COc1cc(/C=C/c2cccc(-c3cccc(NC(=O)c4nc5c(n4C)CCN(CCO)C5)c3Cl)c2C)c(C(F)(F)F)cc1CN1CCCC[C@H]1C(=O)O [Z-113, (S, E)-1-(4-(2-(2′-chloro-3′-(5-(2-hydroxyethyl)-1-methyl-4,5,6,7-tetrahydro-1H-imidazo [4,5-c]pyridine-2-carboxamido)-2-methyl-[1,1′-biphenyl]-3-yl)vinyl)-2-methoxy-5-(trifluoromethyl)benzyl) piperidine-2-carboxylic Acid]
IC50 (PD-1/PD-L1): 1 nM
EC50 [1]: 66 nM

COc1cc(/C=C/c2cccc(-c3cccc(-c4nc5c(C#N)cc(CN6CC[C@@H](C(=O)O)C6)cn5n4)c3C)c2C)c(C(F)(F)F)cc1CN1CC[C@@H](O)C1 [Z-53, (R)-1-((8-cyano-2-(3′-((E)-4-(((R)-3-hydroxypyrrolidin-1-yl)methyl)-5-methoxy-2-(trifluoromethyl)styryl)-2,2′-dimethyl-[1,1′-biphenyl]-3-yl)-[1,2,4]triazolo[1,5-a]pyridin-6-yl)methyl) pyrrolidine-3-carboxylic Acid]
IC50 (PD-1/PD-L1): 1 nM
EC50 [1]: 28 nM

COc1cc(/C=C/c2cccc(-c3cccc(-c4cnc(CN5CC[C@@H](O)C5)c(OC)n4)c3C)c2C)c(C(F)(F)F)cc1CN1CC[C@@H](C(=O)O)C1 [Z-57]
IC50 (PD-1/PD-L1): 1 nM
EC50 [1]: 66 nM

Cc1cc(/C=C/c2nccc(-c3cccc(-c4nc5cc(CN6CC[C@@H](O)C6)cc(C#N)c5o4)c3C)c2C#N)c(C(F)(F)F)cc1CN1CC[C@@H](C(=O)O)C1 [Z-51]
IC50 (PD-1/PD-L1): 1 nM
EC50 [1]: 56 nM

COc1cc(/C=C/c2cccc(-c3cccc(NC(=O)c4ccc(CN5CC[C@@H](O)C5)cn4)c3C)c2C)c(C(F)(F)F)cc1CN1CCCC(C(=O)O)C1 (stereo partly drawn) [Z-106]
IC50 (PD-1/PD-L1): 1 nM
EC50 [1]: 20 nM

COc1cc(C(=O)Nc2cccc(-c3cccc(/C=C/c4cc(OC)c(CN5CCC[C@H]5C(=O)O)cc4C(F)(F)F)c3C)c2C)ncc1CN1CC[C@@H](O)C1 [Z-115]
IC50 (PD-1/PD-L1): 1 nM
EC50 [1]: 31 nM

COc1cc(/C=C/c2cccc(-c3cccc(-c4nc5cc(CNCCO)cc(C#N)c5o4)c3C)c2C)c(C(F)(F)F)cc1CN1CCCC[C@H]1C(=O)O [Z-40]
IC50 (PD-1/PD-L1): 1 nM
EC50 [1]: 108 nM

COc1cc(C(=O)Nc2cccc(-c3cccc(/C=C/c4cc(OC)c(CN5CCC(C)(C(=O)O)C5)cc4C(F)(F)F)c3C)c2C)ncc1CN1CC[C@@H](O)C1 (stereo partly drawn) [Z-121]
IC50 (PD-1/PD-L1): 1 nM
EC50 [1]: 31 nM

COc1cc(/C=C/c2cccc(-c3cccc(Nc4nccc5cc(CN6CC[C@@H](O)C6)cnc45)c3C)c2C)c(C(F)(F)F)cc1CN1CCC[C@H]1C(=O)O [Z-11]
IC50 (PD-1/PD-L1): 1 nM
EC50 [1]: 137 nM

Cc1cc(/C=C/c2cccc(-c3cccc(NC(=O)c4ccc(CN5CC[C@@H](O)C5)cn4)c3C)c2C)c(C(F)(F)F)cc1CN1CC[C@@H](C(=O)O)C1 [Z-90]
IC50 (PD-1/PD-L1): 1 nM
EC50 [1]: 24 nM

COc1cc(/C=C/c2cccc(-c3cccc(NC(=O)c4ccc(CN5CC[C@@H](O)C5)cn4)c3Cl)c2C)c(C(F)(F)F)cc1CN1CCC[C@H]1C(=O)O [Z-92]
IC50 (PD-1/PD-L1): 1 nM
EC50 [1]: 6 nM

COc1cc(/C=C/c2cccc(-c3cccc(NC(=O)c4ccc(CN5CC[C@@H](O)C5)cn4)c3C)c2C)c(C(F)(F)F)cc1CN1CCC(C)(C(=O)O)C1 (stereo partly drawn) [Z-103]
IC50 (PD-1/PD-L1): 1 nM
EC50 [1]: 19 nM

COc1cc(/C=C/c2cccc(-c3cccc(NC(=O)c4ccc(CN5CC[C@@H](O)C5)cn4)c3C)c2Cl)c(C(F)(F)F)cc1CN1CC[C@@H](C(=O)O)C1 [Z-85]
IC50 (PD-1/PD-L1): 1 nM
EC50 [1]: 34 nM

COc1cc(C(=O)Nc2cccc(-c3cccc(/C=C/c4cc(CN5CC[C@@H](C(=O)O)C5)ccc4C(F)(F)F)c3C)c2C)ncc1CN1CC[C@@H](O)C1 [Z-124]
IC50 (PD-1/PD-L1): 1 nM
EC50 [1]: 109 nM

Cc1cc(/C=C/c2cccc(-c3cccc(Nc4nccc5cc(CN6CC[C@@H](O)C6)cnc45)c3C)c2C)c(C(F)(F)F)cc1CN1CC[C@@H](C(=O)O)C1 [Z-9]
IC50 (PD-1/PD-L1): 1 nM
EC50 [1]: 48 nM

COc1cc(/C=C/c2cccc(-c3cccc(NC(=O)c4ccc(CN5CC[C@@H](O)C5)cn4)c3C#N)c2C)c(C(F)(F)F)cc1CN1CC[C@@H](C(=O)O)C1 [Z-105]
IC50 (PD-1/PD-L1): 1 nM
EC50 [1]: 14 nM

COc1cc(/C=C/c2cccc(-c3cccc(NC(=O)c4ccc(CN5CC[C@@H](O)C5)cn4)c3Cl)c2C)c(C(F)(F)F)cc1CN1CCCC[C@H]1C(=O)O [Z-82]
IC50 (PD-1/PD-L1): 1 nM
EC50 [1]: 29 nM

COc1cc(/C=C/c2cccc(-c3cccc(NC(=O)c4ccc(CN5CC[C@@H](O)C5)cn4)c3Cl)c2C)c(C(F)(F)F)cc1CNC[C@@H](O)CC(=O)O [Z-107]
IC50 (PD-1/PD-L1): 1 nM
EC50 [1]: 16 nM

COc1cc(/C=C/c2cccc(-c3cccc(NC(=O)c4ccc(CN5CC[C@@H](O)C5)cn4)c3C)c2C)c(C(F)(F)F)cc1CN1CCCC[C@H]1C(=O)O [Z-102]
IC50 (PD-1/PD-L1): 1 nM
EC50 [1]: 9 nM

COc1cc(/C=C/c2cccc(-c3cccc(NC(=O)c4ccc(CN5CC[C@@H](O)C5)cn4)c3Cl)c2C#N)c(C(F)(F)F)cc1CN1CC[C@@H](C(=O)O)C1 [Z-95]
IC50 (PD-1/PD-L1): < 1 nM
EC50 [1]: 4 nM

COc1cc(/C=C/c2cccc(-c3cccc(NC(=O)c4ccc(CNC[C@@H]5CCC(=O)N5)cn4)c3C)c2C)c(C(F)(F)F)cc1CN1CC[C@@H](C(=O)O)C1 [Z-110, (R)-1-(4-((E)-2-(2,2′-dimethyl-3′-(5-(((((S)-5-oxopyrrolidin-2-yl)methyl)amino)methyl)picolinamido)-[1,1′-biphenyl]-3-yl)vinyl)-2-methoxy-5-(trifluoromethyl)benzyl)pyrrolidine-3-carboxylic Acid]
IC50 (PD-1/PD-L1): 1 nM
EC50 [1]: 153 nM

COc1cc(/C=C/c2cccc(-c3cccc(-c4nc5cc(CN[C@@H](C)CO)cc(C#N)c5o4)c3C)c2C)c(C(F)(F)F)cc1CN1CCCC[C@H]1C(=O)O [Z-41, (S)-1-(4-((E)-2-(3′-(7-cyano-5-((((S)-1-hydroxypropan-2-yl)amino)methyl)benzo[d]oxazol-2-yl)-2,2′-dimethyl-[1,1′-biphenyl]-3-yl)vinyl)-2-methoxy-5-(trifluoromethyl)benzyl) piperidine-2-carboxylic Acid]
IC50 (PD-1/PD-L1): 2 nM
EC50 [1]: 109 nM

COc1cc(/C=C/c2ccnc(-c3cccc(Nc4nccc5cc(CN6CC[C@@H](O)C6)cnc45)c3C)c2Cl)c(C(F)(F)F)cc1CN1CC[C@@H](C(=O)O)C1 [Z-12]
IC50 (PD-1/PD-L1): 1 nM
EC50 [1]: 153 nM

COc1cc(C(=O)Nc2cccc(-c3cccc(/C=C/c4cc(OC)c(CN5CC[C@@H](C(=O)O)C5)cc4C(F)(F)F)c3C)c2C)ncc1CN1CC(CO)C1 [Z-114, (R,E)-1-(4-(2-(3′-(5-((3-(hydroxymethyl)azetidin-1-yl)methyl)-4-methoxypicolinamido)-2,2′-dimethyl-[1,1′-biphenyl]-3-yl)vinyl)-2-methoxy-5-(trifluoromethyl)benzyl)pyrrolidine-3-carboxylic Acid]
IC50 (PD-1/PD-L1): 1 nM
EC50 [1]: 54 nM

Reference: patent publication US20210386721A1, “SUBSTITUTED PHENYLPROPENYL PYRIDINE DERIVATIVES, THEIR PREPARATION AND PHARMACEUTICAL APPLICATIONS” (SHANGHAI HAIYAN PHARMACEUTICAL TECHNOLOGY CO., LTD., priority 2019, published 2021)
